US5436369A, “Alicyclic phospholipase A2 inhibitors” (Bristol-Myers Squibb Company, priority 1994, dated 1995)

Biological target: T1, PLA2 (Homo sapiens, UniProt P14555)
T1 construct: The enzyme is isolated from human platelets; from tissue; host or cells: human platelets
T1 sequence (P14555 21-144): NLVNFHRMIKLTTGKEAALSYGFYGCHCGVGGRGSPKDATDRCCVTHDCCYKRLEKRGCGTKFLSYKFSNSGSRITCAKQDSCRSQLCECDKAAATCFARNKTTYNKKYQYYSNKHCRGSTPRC
Experiment: PLA2 Inhibition Assay (14C-oleate labeled E. coli membrane substrate)
Format: biochemical
Conditions: 100 μM, enzyme isolated from human platelets
Description: The method used is similar to that reported by Franson, et al. [Jesse, R. L. and Franson R. C., Biochim. Biophys. Acta 575:467-470 (1979); Franson, R. C., Patriarca, P., and Elsback, P., J. Lipid Res. 15: 380-388 (1974)]. The enzyme is isolated from human platelets. The substrate used consists of ^14 C-oleate labeled Escherichia coli membranes. E. coli cells are grown in the presence of ^14 C-oleic acid and then autoclaved to prepare the membranes.
Various concentrations of test compounds are pre-incubated with PLA2 (3.6 μg/mL in a buffer consisting of 25 mM HEPES (pH 7)), 150 mM NaCl, 5.0 mM CaCl2, and 10% DMSO (v/v, test compound solvent) at 37° C. for 7 minutes. The E. coli membrane substrate is then added (0.1 mM phospholipid, 0.005 μCi ^14 C) and the reaction is then incubated at 37° C. for 30 minutes. The reaction is then terminated by the addition of 1.9 mL tetrahydrofuran (THF), and the entire solution is applied to a solid-phase extraction column (aminopropyl resin, Analytichem). The column is rinsed with an additional 1 mL of THF. The free fatty acid product of the reaction is then eluted from the column with 1 mL of 2% acetic acid in THF and collected in a scintillation vial. The amount of free fatty acid product is determined by liquid scintillation counting. The amount of inhibition produced by the test compound is calculated by comparing the counts obtained in the presence of the compound to those obtained in its absence (solvent only). Background counts were determined by performing incubations in the absence of enzyme.
Percent inhibition is determined by the equation: [formula]

[1] = Table 2, Structure 14 (Type IA)
[2] = Table 4, Structure 20 (Type IB)
[3] = Table 1, Structure 11 (Type IA)

| SMILES | inhibition at 100 µM [1] [%] | other results |
| --- | --- | --- |
| CC1(C)CCC(C)(C)c2cc3cc(/C=C(/C=C/C(=O)O)c4cccc(C(=O)O)c4)ccc3cc21 [Structure 18b, (2E),(4Z)-4-(3-Carboxyphenyl)-5-(5,6,7,8-tetrahydro-5,5,8,8-tetramethyl-2-anthracenyl)-2,4-pentadienoic acid] | – | inhibition at 100 µM (Table 3, Structure 18 (Type IB)): 100% |
| O=C(O)/C=C\C(=C\CCc1ccc(C23CC4CC(CC(C4)C2)C3)c(O)c1)c1cccc(C(F)(F)F)c1 [Structure 14q, (2Z),(4Z)-4-(3-Trifluoromethylphenyl)-7-[4-(1-adamantyl)-3-hydroxyphenyl]-2,4-heptadienoic acid] | 100 | – |
| O=C(O)/C=C\C(=C\CCc1ccc(C23CC4CC(CC(C4)C2)C3)c(OCC(=O)O)c1)c1cccc(C(F)(F)F)c1 [Structure 14v, (2Z),(4Z)-4-(3-Trifluoromethylphenyl)-7-[4-(1-adamantyl)-3-(carboxymethoxy)phenyl]-2,4-heptadienoic acid] | 100 | – |
| COc1cc(/C=C(/C=C\C(=O)O)c2cccc(C(F)(F)F)c2)ccc1C12CC3CC(CC(C3)C1)C2 [Structure 14p, (2Z),(4Z)-4-(3-Trifluoromethylphenyl)-5-[-4-(1-adamantyl)-3-methoxyphenyl]-2,4-pentadienoic acid] | 93 | – |
| CC1(C)CCC(C)(C)c2cc(CC/C=C(/C=C\C(=O)O)c3cccc(C(F)(F)F)c3)ccc21 [Structure 14g, (2Z),(4Z)-4-(3-Trifluoromethylphenyl)-7-(5,6,7,8-tetrahydro-5,5,8,8-tetramethyl-2-naphthalenyl)-2,4-heptadienoic acid] | 96 | – |
| CC1(C)CCC(C)(C)c2cc(CC/C=C(/C=C\C(=O)O)c3ccccc3)ccc21 [Structure 14j, (2Z),(4Z)-4-Phenyl-7-(5,6,7,8-tetrahydro-5,5,8,8-tetramethyl-2-naphthalenyl)-2,4-heptadienoic acid] | 92 | – |
| COc1cc(CC/C=C(/C=C/C(=O)O)c2cccc(C(F)(F)F)c2)ccc1C12CC3CC(CC(C3)C1)C2 [Structure 20f, (2Z),(4Z)-4-(3-Trifluoromethylphenyl)-7-[4-(1-adamantyl)-3-methoxyphenyl]-2,4-heptadienoic acid] | – | inhibition at 100 µM [2]: 90% |
| COc1ccc(CC/C=C(/C=C\C(=O)O)c2cccc(C(F)(F)F)c2)c(C23CC4CC(CC(C4)C2)C3)c1 [Structure 14o, (2Z),(4Z)-4-(3-Trifluoromethylphenyl)-7-[2-(1-adamantyl)-4-methoxyphenyl]-2,4-heptadienoic acid] | 99 | – |
| CC(=C/C(=O)O)/C(=C/c1ccc2cc3c(cc2c1)C(C)(C)CCC3(C)C)c1cccc(C(=O)O)c1 [Structure 11k, (2Z),(4Z)-3-Methyl-4-(3-carboxyphenyl)-5-(5,6,7,8-tetrahydro-5,5,8,8-tetramethyl-2-anthracenyl)-2,4-pentadienoic acid] | – | inhibition at 100 µM [3]: 98% |
| COc1cc(CC/C=C(/C=C\C(=O)O)c2ccccc2)ccc1C12CC3CC(CC(C3)C1)C2 [Structure 14n, (2Z),(4Z)-4-Phenyl-7-[4-(1-adamantyl)-3-methoxyphenyl]-2,4-heptadienoicacid] | 100 | – |
| O=C(O)/C=C\C(=C\c1ccccc1)c1cccc(C(=O)O)c1 [Structure 11a, (2Z),(4Z)-4-(3-Carboxyphenyl)-5-phenyl-2,4-pentadienoic acid] | – | inhibition at 100 µM [3]: 6% |
| CC1(C)CCC(C)(C)c2cc(CC/C=C(/C=C/C(=O)O)c3cccc(C(F)(F)F)c3)ccc21 [Structure 20a, (2E),(4Z)-4-(3-Trifluoromethylphenyl)-7-(5,6,7,8-tetrahydro-5,5,8,8-tetramethyl-2-naphthalenyl)-2,4-heptadienoic acid] | – | inhibition at 100 µM [2]: 52% |
| CCCCCOc1cc(CC/C=C(/C=C\C(=O)O)c2cccc(C(F)(F)F)c2)ccc1C12CC3CC(CC(C3)C1)C2 [Structure 14r, (2Z),(4Z)-4-(3-Trifluoromethylphenyl)-7-[4-(1-adamantyl)-3-pentyloxyphenyl]-2,4-heptadienoic acid] | 95 | – |
